Results taken from patent publication US8486939B2, “Pyrimidinyl and 1,3,5-triazinyl benzimidazoles and their use in cancer therapy” (Pathway Therapeutics Inc., priority 2009, dated 2013).
Counter-ions that a name gives are not always drawn.

Row | SMILES | melting point
1 | COc1cccc2c1nc(C(F)F)n2-c1nc(Nc2cccnc2)nc(N2CCOCC2)n1 (as salt: methanesulfonate) [Example 2, 4-[2-(difluoromethyl)-4-methoxy-1H-benzimidazol-1-yl]-6-(4-morpholinyl)-N-(3-pyridinyl)-1,3,5-triazin-2-amine] | 279 to 282 °C
2 | FC(F)c1nc2ccccc2n1-c1nc(Nc2cncnc2)nc(N2CCOCC2)n1 (as salt: methanesulfonate) [Example 35, 4-[2-(difluoromethyl)-1H-benzimidazol-1-yl]-6-(4-morpholinyl)-N-(5-pyrimidinyl)-1,3,5-triazin-2-amine] | 163 to 166 °C
3 | COc1cccc2c1nc(C(F)F)n2-c1nc(-c2cn[nH]c2)nc(N2CCOCC2)n1 [Example 50, 2-(Difluoromethyl)-4-methoxy-1-[4-(4-morpholinyl)-6-(1H-pyrazol-4-yl)-1,3,5-triazin-2-yl]-1H-benzimidazole] | 289 to 291 °C
4 | COc1ccc(-c2cc(N3CCOCC3)nc(-n3c(C(F)F)nc4ccccc43)n2)cn1 [Example 53] | 224 to 226 °C
5 | Nc1ncc(-c2cc(N3CCOCC3)nc(-n3c(C(F)F)nc4ccccc43)n2)cn1 [Example 58, 2-[2-(difluoromethyl)-1H-benzimidazol-1-yl]-6-(4-morpholinyl)-4,5′-bipyrimidine-2′-amine] | 281 to 285 °C
6 | COc1cccc2c1nc(C(F)F)n2-c1nc(N2CCOCC2)c2ncn(-c3cccnc3)c2n1 [Example 59, 2-[2-(difluoromethyl)-4-methoxy-1H-benzimidazol-1-yl]-6-(4-morpholinyl)-9-(3-pyridinyl)-9H-purine] | 229 to 231 °C
7 | COc1cccc2c1nc(C(F)F)n2-c1nc(N2CCOCC2)nc2c1ncn2-c1cccnc1 [Example 61, 6-[2-(Difluoromethyl)-4-methoxy-1H-benzimidazol-1-yl]-2-(4-morpholinyl)-9-(3-pyridinyl)-9H-purine] | 206 to 209 °C

Other lines, results leading:

Row | melting point | SMILES
8 | > 300 °C | COc1cc(N)cc2c1nc(C(F)F)n2-c1nc(N2CCOCC2)nc(-n2cccn2)n1 (as salt: methanesulfonate) [Example 64, 2-(Difluoromethyl)-4-methoxy-1-[4-(4-morpholinyl)-6-(1H-pyrazol-1-yl)-1,3,5-triazin-2-yl]-1H-benzimidazol-6-ylamine]
9 | > 300 °C | COc1cc(N)cc2c1nc(C(F)F)n2-c1nc(-c2ccn(C)n2)nc(N2CCOCC2)n1 (as salt: methanesulfonate) [Example 65, 2-(Difluoromethyl)-4-methoxy-1-[4-(1-methyl-1H-pyrazol-3-yl)-6-(4-morpholinyl)-1,3,5-triazin-2-yl]-1H-benzimidazol-6-ylamine]
10 | > 300 °C | COc1cc(N)cc2c1nc(C(F)F)n2-c1nc(-c2cn[nH]c2)nc(N2CCOCC2)n1 (as salt: methanesulfonate) [Example 66, 2-(Difluoromethyl)-4-methoxy-1-[4-(4-morpholinyl)-6-(1H-pyrazol-4-yl)-1,3,5-triazin-2-yl]-1H-benzimidazol-6-ylamine]
11 | 246 °C (dec.) | COc1cc(N)cc2c1nc(C(F)F)n2-c1nc(-c2cccnc2)cc(N2CCOCC2)n1 (as salt: methanesulfonate) [Example 68, 2-(Difluoromethyl)-4-methoxy-1-[4-(4-morpholinyl)-6-(3-pyridinyl)-2-pyrimidinyl]-1H-benzimidazol-6-ylamine]
12 | 238 to 240 °C | COc1cccc2c1nc(C(F)F)n2-c1nc(N2CCOCC2)nc2c1ncn2-c1cncnc1 [Example 62, 6-[2-(Difluoromethyl)-4-methoxy-1H-benzimidazol-1-yl]-2-(4-morpholinyl)-9-(5-pyrimidinyl)-9H-purine]
13 | 272 to 275 °C | COc1cccc2c1nc(C(F)F)n2-c1nc(N2CCOCC2)nc(-n2ccnc2)n1 [Example 67, 2-(Difluoromethyl)-1-[4-(1H-imidazol-1-yl)-6-(4-morpholinyl)-1,3,5-triazin-2-yl]-4-methoxy-1H-benzimidazole]
